In paper PMC4807051, “Determinants of Cofactor Specificity for the Glucose-6-Phosphate Dehydrogenase from Escherichia coli: Simulation, Kinetics and Evolutionary Studies” (PLoS ONE, 2016):

Assays:
[1] = target: T1, EcG6PDH; glucose-6-phosphate dehydrogenase from Escherichia coli (Escherichia coli, UniProt P0AC53, R50A); experiment: NAD(P)H formation at […] nm, Michaelis-Menten fit; assay type: biochemical; settings: co-substrate NADP+ at 10 times its KM; 25°C
T1 construct: gene zwf; full length; N-terminal 6xHis tag cut by TEV protease (Gly-His left before Met1); plasmid pET-TEV-EcG6PDH from pETG6PDH

[2] = target: T2, EcG6PDH; glucose-6-phosphate dehydrogenase from Escherichia coli (Escherichia coli, UniProt P0AC53, K18A); experiment: NAD(P)H formation at […] nm, Michaelis-Menten fit; assay type: biochemical; settings: co-substrate NADP+ at 10 times its KM; 25°C
T2 construct: gene zwf; full length; N-terminal 6xHis tag cut by TEV protease (Gly-His left before Met1); plasmid pET-TEV-EcG6PDH from pETG6PDH

O=P(O)(O)OC[C@H]1OC(O)[C@H](O)[C@@H](O)[C@@H]1O (some centres unmarked) [G6P]
apparent KM [1]: we determined the effect of the mutations on the apparent kinetic parameters for G6P | apparent KM [2]: we determined the effect of the mutations on the apparent kinetic parameters for G6P
